This is an account of results in patent US20230279020A9, “CARM1 INHIBITORS AND USES THEREOF” (Epizyme, Inc., priority 2013, published 2023).

Structures are written as SMILES.

One test has as its target Human CARM1 (PRMT4) (Homo sapiens (Human), UniProt Q86X55). Nature of the test: CARM1 enzyme assay on peptide substrate (3H-SAM Flashplate). The note with it: Biochemical potencies, classification codes; read-out: Biochem IC50.
For test [1], the system named is asymmetric di-methyl PABP1 in RKO cells. Nature of the test: RKO methylation assay, In Cell Western (ICW) for asymmetric di-methyl PABP1. Format: cell-based. The note with it: Cellular potencies, PABP1me2a ICW. The text has this:
RKO adherent cells were purchased from ATCC (American Type Culture Collection), Manassas, Va., USA. DMEM/Glutamax medium, penicillin-streptomycin, heat inactivated fetal bovine serum, 0.05% trypsin and D-PBS were purchased from Life Technologies, Grand Island, N.Y., USA. Odyssey blocking buffer, 800CW goat anti-rabbit IgG (H+L) antibody, and Licor Odyssey infrared scanner were purchased from Licor Biosciences, Lincoln, Nebr., USA. Asymmetric di-methyl PABP1 antibody was purchased from Cell Signaling Technology, Danvers, Mass., USA. Methanol was purchased from VWR, Franklin, Mass., USA. 10% Tween 20 was purchased from KPL, Inc., Gaithersburg, Md., USA. Paraformaldehyde (PFA) was purchased from EM Sciences. DRAQ5 was purchased from Biostatus Limited, Leicestershire, UK.
RKO adherent cells were maintained in growth medium (DMEM/Glutamax medium supplemented with 10% v/v heat inactivated fetal bovine serum and 100 units/mL penicillin-streptomycin) and cultured at 37° C. under 5% CO2.
Cell treatment, In Cell Western (ICW) for detection of asymmetric di-methyl PABP1 and DNA content: RKO cells were seeded in assay medium at a concentration of 30,000 cells per mL to a poly-D-lysine coated 384 well culture plate (BD Biosciences 356697) with 50 μL per well. Compound (100 nL) from a 96-well source plate was added directly to 384 well cell plate. Plates were incubated at 37° C., 5% CO2 for 48 hours. After two days of incubation, plates were brought to room temperature outside of the incubator for ten minutes and blotted on paper towels to remove cell media. Cells were fixed for 20 minutes at room temperature by adding 50 ul of 8% PFA followed by aspiration of supernatant with the Biotek EL406 plate washer. Cells were then permeabilized by addition of 50 μL of ice cold 100% methanol directly to each well and incubated for 30 min at room temperature. After 30 min, plates were transferred to a Biotek EL406 plate washer and washed 2 times with 100 μL per well of wash buffer (1×PBS). Next 60 μL per well of Odyssey blocking buffer (Odyssey Buffer with 0.1% Tween 20 (v/v)) were added to each plate and incubated 1 hour at room temperature. Blocking buffer was removed and 20 μL per well of primary antibody was added (asymmetric-methyl PABP1) diluted 1:400 in Odyssey buffer with 0.1% Tween 20 (v/v)) and plates were incubated overnight (16 hours) at 4° C. Plates were washed 5 times with 100 μL per well of wash buffer. Next 20 μL per well of secondary antibody was added (1:800 800CW goat anti-rabbit IgG (H+L) antibody, 1:2000 DRAQ5 in Odyssey buffer with 0.1% Tween 20 (v/v)) and incubated for 1 hour at room temperature. The plates were washed 5 times with 100 μL per well wash buffer then 2 times with 100 μL per well of water. Plates were allowed to dry at room temperature then imaged on the Licor Odyssey machine which measures integrated intensity at 700 nm and 800 nm wavelengths. Both 700 and 800 channels were scanned.
First, the ratio for each well was determined by:
Each plate included fourteen control wells of DMSO only treatment (minimum inhibition) as well as fourteen control wells for maximum inhibition treated with 20 μM of a reference compound. The average of the ratio values for each control type was calculated and used to determine the percent […] for each test well in the plate. Reference compound was serially diluted three-fold in DMSO for a total of nine test concentrations, beginning at 20 μM.
Percent inhibition was determined and IC50 curves were generated using triplicate wells per concentration of compound.

The test system of another test is NCI-H929. Put plainly: Human myeloma cell line 14-day proliferation assay (NCI-H929). The format is cell-based. The note with it: NCI-H929 Human Multiple Myeloma cell line, varying doses, FIG. 1A. Here is the method: (§1) Human Multiple Myeloma cell lines NCI-H929 (FIG. 1A) and U266B1 (FIG. 1B) were treated with varying doses of 304-1a (medium grey data points), 23-3 (light grey data points), and 113-3 (black data points) in a 14-day proliferation assay. At the end of the experiment, total cell number was determined for each cell line for different doses of 304-1a, 23-3, and 113-3.

For a further test, the system named is U266B1. Put plainly: Human myeloma cell line 14-day proliferation assay (U266B1). The format is cell-based. The note with it: U266B1 Human Multiple Myeloma cell line, varying doses, FIG. 1B. Here is the method: as §1

Chain of Human CARM1 (PRMT4) (Q86X55 other isoform, or with tags, fused parts or gaps isoform Q86X55-1): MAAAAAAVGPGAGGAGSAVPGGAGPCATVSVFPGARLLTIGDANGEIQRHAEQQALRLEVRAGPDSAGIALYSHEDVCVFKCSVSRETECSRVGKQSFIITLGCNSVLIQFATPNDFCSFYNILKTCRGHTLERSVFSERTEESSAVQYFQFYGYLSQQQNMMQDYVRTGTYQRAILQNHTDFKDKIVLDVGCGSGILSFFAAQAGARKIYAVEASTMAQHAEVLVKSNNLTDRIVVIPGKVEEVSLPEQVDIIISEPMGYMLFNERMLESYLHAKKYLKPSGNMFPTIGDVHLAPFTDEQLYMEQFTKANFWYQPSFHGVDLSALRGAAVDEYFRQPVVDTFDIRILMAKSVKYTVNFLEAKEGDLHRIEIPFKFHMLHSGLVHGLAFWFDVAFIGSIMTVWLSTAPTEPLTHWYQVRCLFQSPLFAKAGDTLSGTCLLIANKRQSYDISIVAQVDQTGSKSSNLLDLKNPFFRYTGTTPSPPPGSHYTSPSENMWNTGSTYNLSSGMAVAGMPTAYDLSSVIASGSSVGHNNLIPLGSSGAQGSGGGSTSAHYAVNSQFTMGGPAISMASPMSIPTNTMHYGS

With `CNCC(O)COc1cccc(-c2nc(NC3CCOC3=O)cc(-c3c(C)noc3C)n2)c1` (centres unmarked) [Example 23-1a], the IC50 at Human CARM1 (PRMT4) was less than 0.1 µM; in test [1] (Homo sapiens, RKO) it was 10 to 20 µM. Regarding `CCOC(=O)N1CCOC[C@@H]1CNc1nc(-c2cc(OC[C@H](O)CNC)ccc2Cl)nc(-c2c(C)noc2C)c1C` [Example 23-3], the “cell proliferation (total cell number)” value in the test on NCI-H929 and with U266B1 was “decreased the proliferation” each time. In addition, the IC50 on Human CARM1 (PRMT4) was less than 0.1 µM.

As for `CNCC(O)COc1cccc(-c2nc(NC3CCOC3=O)cc(-c3c(C)noc3C)n2)c1` (centres unmarked) [Example 24-1a], the IC50 in test [1] lay within 10 to 20 µM. For the compound `CNCC(O)COc1cccc(-c2nc(-c3c(C)noc3C)cc(N3C[C@@H]4C[C@H]3CN4C(=O)OC)n2)c1` (some centres unmarked) [Example 105-1a], the results for the IC50 (at Human CARM1 (PRMT4); in test [1]) were less than 0.1 µM and 5 to 10 µM, respectively.

As for `CNC[C@@H](O)COc1ccc(Cl)c(-c2nc(-c3c(C)noc3C)c(C)c(N3Cc4cccnc4C3)n2)c1` [Example 113-3], the “cell proliferation (total cell number)” value with NCI-H929 and in the test on U266B1 was “decreased the proliferation” in each case. At Human CARM1 (PRMT4), the IC50 is less than 0.1 µM. Take `CNCC(O)COc1cccc(-c2nc(-c3c(C)noc3C)c(C)c(N3CCO[C@H](CNC)C3)n2)c1` (some centres unmarked) [Example 129-1a]: the IC50 at Human CARM1 (PRMT4) was less than 0.1 µM; in test [1], 10 to 20 µM.

As for `CNC[C@@H](O)COc1ccc(Cl)c(-c2nc(NC3CCN(C(=O)OC)CC3)c(Cl)c(-c3c(C)noc3C)n2)c1` [Example 304-1a], the “cell proliferation (total cell number)” value in the test with NCI-H929 and in the test with U266B1 was “decreased the proliferation” throughout. On Human CARM1 (PRMT4), the IC50 was less than 0.1 µM.

As for `CNCC(O)COc1cccc(-c2nc(N[C@@H]3CCOC3)c(C)c(N3CCC(n4c(C)nnc4C)CC3)n2)c1` (some centres unmarked) [Example 390-1a], in test [1] (Homo sapiens, RKO), the IC50 fell in the range of 5 to 10 µM. Compound `CNCC(O)COc1cccc(-c2nc(N[C@@H]3CCOC3)c(C)c(-c3ccc4nccn4c3)n2)c1` (some centres unmarked) [Example 445-1a] had an IC50 in test [1] (Homo sapiens, RKO) of 10 to 20 µM. In turn, `CCS(=O)(=O)n1cc(-c2cc(N(C)C3CCOCC3)nc(-c3cccc(OCC(O)CNC)c3)n2)c2cncnc21` (centres unmarked) [Example 484-1a] showed an IC50 in test [1] (Homo sapiens, RKO) of less than 5 µM. Turning to `CNCC(O)COc1cccc(-c2nc(C3CCN(C(=O)N(C)C)[C@@H](C)C3)cc(N(C)C3CCOCC3)n2)c1` (some centres unmarked) [Example 509-1a], the concentration for half-maximal inhibition (IC50) on Human CARM1 (PRMT4) lay within 0.1 to 1 µM; in test [1] (Homo sapiens, RKO), 5 to 10 µM. `CNC[C@@H](O)COc1cccc(-c2nc(N3CC4(CCNCC4)c4ccccc43)cc(N(C)C3CCOCC3)n2)c1` [Example 558-1a]: the IC50 at Human CARM1 (PRMT4) was less than 0.1 µM; in test [1], 10 to 20 µM. With `CNCC(O)COc1cccc(-c2nc(NC3CCOCC3)cc(-c3ccc4c(c3)OCCO4)n2)c1` (centres unmarked) [Example 657-1a], the IC50 at Human CARM1 (PRMT4) was less than 0.1 µM. For `CNCC(O)COc1cccc(-c2nc(NC3CCOCC3)cc(-c3ccc(OC)c(OC)c3)n2)c1` (centres unmarked) [Example 658-1a], at Human CARM1 (PRMT4), the IC50 is less than 0.1 µM.

Consider `CNCC(O)COc1cc(Cl)cc(-c2nc(NC3CCNCC3)cc(-c3ccncc3)n2)c1` (centres unmarked) [Example 665-1a], for which the IC50 on Human CARM1 (PRMT4) is less than 0.1 µM.

With `CNCC(O)COc1cccc(-c2nc(-c3ccncc3)cc(N(C)C3CCNCC3)n2)c1` (centres unmarked) [Example 669-1a], the IC50 on Human CARM1 (PRMT4) is less than 0.1 µM.

Regarding `CNCC(O)COc1cccc(-c2nc(C(=O)NC3CCOCC3)c(C)c(C(=O)NC3CCOCC3)n2)c1` (centres unmarked) [Example 677-1a], the IC50 at Human CARM1 (PRMT4) was more than 10 µM. With `CCN(CC)c1nc(-c2cccc(OCC(O)CNC)c2)nc(N2CCOCC2)c1C` (centres unmarked) [Example 682-1a], on Human CARM1 (PRMT4), the IC50 was less than 0.1 µM.

Usually IC50 stands for the concentration that inhibits the measured activity by half.
